Measured values from patent publication US10993933B2, “Oral dosage forms of bendamustine” (ASTELLAS DEUTSCHLAND GMBH, priority 2010, dated 2021).

Key:
[1] = Phase 1 crossover study, urine pharmacokinetics (Example 8); format: in vivo, human; settings: for percentage of the dose excreted in urine as metabolite: patients, oral administration
Description: Urine pharmacokinetic parameters of bendamustine, M3 and M4 are presented in Table 27, Table 28 and Table 29, respectively. The percentage of the dose excreted in urine unchanged was low (2.6% and 2.1% for oral and intravenous bendamustine, respectively).

[2] = Phase 1 crossover study, plasma pharmacokinetics after oral and i.v. bendamustine (Example 8); settings: for AUCinf / AUClast / Cmax / t1/2 / tmax: mean, n=11; for Mean AUCinf of bendamustine relative to that of the metabolite (times higher) / exposure relative to that of bendamustine / AUCinf after oral administration as % of AUCinf after intravenous administration: patients; for Mean AUCinf of bendamustine relative to that of the metabolite (times higher) / exposure relative to that of bendamustine: oral administration; for AUCinf after oral administration as % of AUCinf after intravenous administration: 90% CI M3: 76%, 98%, M4: 77%, 102%
Description: An open label, randomized two-way crossover study to assess the absolute bioavailability of oral bendamustine in patients with cancer was conducted to assess the absolute bioavailability of bendamustine administered as an oral formulation (example 2). Besides assessing the pharmacokinetics of bendamustine in plasma following oral and i.v. administration, a further objective was to evaluate the safety and tolerability of bendamustine following i.v. and especially oral administration of the formulation of example 2.
14 patients who were suffering from multiple myeloma, B-cell type chronic lymphocytic leukemia or advanced indolent non-Hodgkin's lymphoma were enrolled and were treated with bendamustine. […] After signing the informed consent form and following the screening period (days −21 to −2), eligible patients were assigned a patient number which was specific for each study site. Patients were randomized to receive one of the following on day 1 followed by the other on day 8: • a single oral dose of 110.2 mg (2×55.1 mg) bendamustine HCl • a single intravenous dose of 100 mg bendamustine HCl
Bendamustine was provided a) orally as capsules, a LFHC formulation (liquid-filled, hard-shell capsule) and b) intravenously as a solution after reconstituting a powder for the preparation of a solution for injection. The LFHC formulation (per capsule) was prepared from 55.1 mg bendamustine hydrochloride, 1.2 mg methylparaben, 0.12 mg […], 0.12 mg butylated hydroxytoluene, 10.9 mg ethanol and 532.56 mg CREMOPHOR RH40. The vial with powder for concentrate for solution was the marketed product in Germany (RIBOMUSTINE) which contains per vial 100 mg of bendamustine hydrochloride and mannitol as an excipient. This product was reconstituted with water for injection to a final concentration of 2.5 mg/ml of bendamustine HCl and was further diluted with 0.9% NaCl until about 500 ml before administration to the patient, in accordance with the instructions of the package insert.
Patients were admitted to the study site for 2 periods; days −1 to 2 (period 1) and days 7 to 9 (period 2). A total of 12 patients was to be randomized to receive treatment. Six patients were to receive treatment with a single oral dose of 110.2 mg (2×55.1 mg) bendamustine HCl (day 1) followed by a single intravenous dose of 100 mg bendamustine HCl (day 8) while 6 other patients were to receive treatment in the alternate order. Patients underwent a washout period of at least 7 days between treatments.
After oral and intravenous administration of bendamustine the concentration of bendamustine, as well as that of the active metabolites of bendamustine (M3 and M4), were determined in plasma and urine samples on day 1 and day 8. Patients returned to the study site for an end-of-study visit 7 to 14 days after completion of the second treatment period, or after early discharge/withdrawal. Subsequently the pharmacokinetic parameters of bendamustine and its metabolites were calculated.

[3] = M3 in urine, Bendamustine HCl 100 mg intravenously, mean, n=11
[4] = M3 in urine, Bendamustine HCl 100 mg intravenously, median, n=11
[5] = M3 in urine, Bendamustine HCl 100 mg intravenously, min-max, n=11
[6] = M3 in urine, Bendamustine HCl 110.2 mg orally, mean, n=10
[7] = M3 in urine, Bendamustine HCl 110.2 mg orally, median, n=10
[8] = M3 in urine, Bendamustine HCl 110.2 mg orally, min-max, n=10
[9] = M3 in plasma, Bendamustine HCl 100 mg intravenously
[10] = M3 in plasma, Bendamustine HCl 110.2 mg orally
[11] = M4 in urine, Bendamustine HCl 100 mg intravenously, mean, n=11
[12] = M4 in urine, Bendamustine HCl 100 mg intravenously, median, n=11
[13] = M4 in urine, Bendamustine HCl 100 mg intravenously, min-max, n=11
[14] = M4 in urine, Bendamustine HCl 110.2 mg orally, mean, n=10
[15] = M4 in urine, Bendamustine HCl 110.2 mg orally, median, n=10
[16] = M4 in urine, Bendamustine HCl 110.2 mg orally, min-max, n=10
[17] = M4 in plasma, Bendamustine HCl 100 mg intravenously
[18] = M4 in plasma, Bendamustine HCl 110.2 mg orally

SMILES: Cn1c(C(O)CCC(=O)O)nc2cc(N(CCCl)CCCl)ccc21 (stereo not shown) [Batch M3, γ-hydroxybendamustine]
- % Aeinf [1, 3]: 0.459%
- % Aelast [1, 3]: 0.457%
- Aeinf [1, 3]: 0.435 mg
- Aelast [1, 3]: 0.433 mg
- CLR [1, 3]: 1.29 L/h
- % Aeinf [1, 4]: 0.354%
- % Aelast [1, 4]: 0.353%
- Aeinf [1, 4]: 0.336 mg
- Aelast [1, 4]: 0.334 mg
- CLR [1, 4]: 0.856 L/h
- % Aeinf [1, 5]: 0.018-1.6%
- % Aelast [1, 5]: 0.018-1.6%
- Aeinf [1, 5]: 0.017 to 1.6 mg
- Aelast [1, 5]: 0.017 to 1.5 mg
- CLR [1, 5]: 0.082 to 5.2 L/h
- % Aeinf [1, 6]: 0.611%
- % Aelast [1, 6]: 0.61%
- Aeinf [1, 6]: 0.636 mg
- Aelast [1, 6]: 0.635 mg
- CLR [1, 6]: 2.14 L/h
- % Aeinf [1, 7]: 0.537%
- % Aelast [1, 7]: 0.553%
- Aeinf [1, 7]: 0.558 mg
- Aelast [1, 7]: 0.576 mg
- CLR [1, 7]: 1.49 L/h
- % Aeinf [1, 8]: 0.13-1.5%
- % Aelast [1, 8]: 0.12-1.6%
- Aeinf [1, 8]: 0.13 to 1.6 mg
- Aelast [1, 8]: 0.13 to 1.7 mg
- CLR [1, 8]: 0.45 to 7.4 L/h
- percentage of the dose excreted in urine as metabolite [1]: 0.6%
- AUCinf [2, 9]: 372 ng·h/mL
- AUClast [2, 9]: 370 ng·h/mL
- Cmax [2, 9]: 344 ng/mL
- t1/2 [2, 9]: 43.6 min
- tmax [2, 9]: 49.4 min
- AUCinf [2, 10]: 369 ng·h/mL
- AUClast [2, 10]: 367 ng·h/mL
- Cmax [2, 10]: 243 ng/mL
- t1/2 [2, 10]: 38.6 min
- tmax [2, 10]: 76.2 min
- Mean AUCinf of bendamustine relative to that of the metabolite (times higher) [2]: 10.6 times
- exposure relative to that of bendamustine [2]: approximately 9%
- AUCinf after oral administration as % of AUCinf after intravenous administration [2]: 86%

SMILES: O=C(O)CCCc1nc2cc(N(CCCl)CCCl)ccc2[nH]1 [Batch M4, N-desmethylbendamustine]
- % Aeinf [1, 11]: 0.081%
- % Aelast [1, 11]: 0.086%
- Aeinf [1, 11]: 0.071 mg
- Aelast [1, 11]: 0.075 mg
- CLR [1, 11]: 1.74 L/h
- % Aeinf [1, 12]: 0.045%
- % Aelast [1, 12]: 0.043%
- Aeinf [1, 12]: 0.039 mg
- Aelast [1, 12]: 0.038 mg
- CLR [1, 12]: 1.66 L/h
- % Aeinf [1, 13]: 0.0039-0.17%
- % Aelast [1, 13]: 0.0028-0.21%
- Aeinf [1, 13]: 0.0034 to 0.15 mg
- Aelast [1, 13]: 0.0025 to 0.18 mg
- CLR [1, 13]: 0.18 to 5.3 L/h
- % Aeinf [1, 14]: 0.109%
- % Aelast [1, 14]: 0.113%
- Aeinf [1, 14]: 0.105 mg
- Aelast [1, 14]: 0.109 mg
- CLR [1, 14]: 2.83 L/h
- % Aeinf [1, 15]: 0.104%
- % Aelast [1, 15]: 0.104%
- Aeinf [1, 15]: 0.1 mg
- Aelast [1, 15]: 0.1 mg
- CLR [1, 15]: 2.24 L/h
- % Aeinf [1, 16]: 0.034-0.22%
- % Aelast [1, 16]: 0.019-0.21%
- Aeinf [1, 16]: 0.033 to 0.21 mg
- Aelast [1, 16]: 0.019 to 0.21 mg
- CLR [1, 16]: 0.78 to 7.1 L/h
- percentage of the dose excreted in urine as metabolite [1]: 0.1%
- AUCinf [2, 17]: 42.5 ng·h/mL
- AUClast [2, 17]: 40.8 ng·h/mL
- Cmax [2, 17]: 33.6 ng/mL
- t1/2 [2, 17]: 32.6 min
- tmax [2, 17]: 56.1 min
- AUCinf [2, 18]: 44.4 ng·h/mL
- AUClast [2, 18]: 42.8 ng·h/mL
- Cmax [2, 18]: 26.9 ng/mL
- t1/2 [2, 18]: 30.9 min
- tmax [2, 18]: 79.5 min
- Mean AUCinf of bendamustine relative to that of the metabolite (times higher) [2]: 88 times
- exposure relative to that of bendamustine [2]: ~1%
- AUCinf after oral administration as % of AUCinf after intravenous administration [2]: 88%
